Measured values published in US4148795A, “Dithiocarbamate ester bactericides and fungicides” (American Cyanamid Company, priority 1976, dated 1979).
Values joined by “and” are separate entries in the source; they are usually repeats but may differ in a detail not shown here. Equal entries are not always repeated. Where two headings read alike, the source gives them in different places.

Assays:
[1] = system: Collectotrichum lagenarium; experiment: Agar dilution plate; type: cell-based; conditions: Cl; 100 ppm, 72 hours at 23° C
Description: (§1) Test compounds were incorporated in a Sabouraud's dextrose agar in an amount sufficient to provide the active ingredient in a concentration of about 100 ppm. A twenty-ml. sample of the agar mixture is placed in a petri dish and permitted to solidify. An agar sample is inoculated with the test organism set forth below and then covered and incubated for a period of about 72 hours at 23° C. After incubation, growth observations are made. The test results are recorded and the test is repeated twice for the purpose of comparison.
(§2) The data obtained with a variety of test organisms is shown in the table below, and ratings are shown as 0 or 5. O indicates no control, 5 indicates 100% effectiveness of the test compound against the specified organism.
Cl= Collectotrichum lagenarium

[2] = system: Pythium de Baryanum; experiment: Agar dilution plate; type: cell-based; conditions: Pd; 100 ppm, 72 hours at 23° C
Description: as §1, §2

[3] = system: Aspergillus niger; experiment: Agar dilution plate; type: cell-based; conditions: An; 100 ppm, 72 hours at 23° C
Description: as §1, §2

[4] = system: Rhizoctonia solani; experiment: Agar dilution plate; type: cell-based; conditions: Rs; 100 ppm, 72 hours at 23° C
Description: as §1, §2

[5] = system: Monilinia fructicola; experiment: Agar dilution plate; type: cell-based; conditions: Mf; 100 ppm, 72 hours at 23° C
Description: as §1, §2

[6] = system: Fusarium lycopersici; experiment: Agar dilution plate; type: cell-based; conditions: Fl; 100 ppm, 72 hours at 23° C
Description: as §1, §2

[7] = system: Stemphylium sarcinaeforme; experiment: Agar dilution plate; type: cell-based; conditions: Ss; 100 ppm, 72 hours at 23° C
Description: as §1, §2
Ss= Stemphylium sarcinaeforme

[8] = system: Piricularia oryzae; type: in vivo; parameters: scale not given here; conditions: Rice Blast, five days
[9] = system: Phytophthora infestans; type: in vivo; parameters: scale not given here; conditions: Tomato Late Blight, five days
[10] = system: Verticillium albo-atrum; experiment: Agar dilution plate; type: cell-based; conditions: Va; 100 ppm, 72 hours at 23° C
Description: as §1, §2
Va= Verticillium albo-atrum

[11] = system: Pseudomonas solaracaerum; type: cell-based; conditions: 100 ppm, 72 hours at 23° C
[12] = system: Venturia inaequalis; conditions: in vivo; further: key: 5: clean, no disease; 4: trace of disease; 3: slight disease; 2: moderate disease; 1: severe disease; 0: like controls
[13] = system: Aspergillus niger; experiment: Spore germination inhibition; type: cell-based; conditions: 24 hours
Source text: (§3) The test procedure involves the preparation of a 100, 10 or 1 ppm. suspension of test compound in water. The solutions are placed in one dram "opticlear" vials and separately inoculated with one drop of a spore suspension prepared from seven-day cultures of Aspergillus niger and 14-day old cultures of Monilinia fructicola and Stemphylium sarcinaeforme,all grown on potato-dextrose agar. The vials containing the separately inoculated solutions of test compounds are then capped and placed on a rotating tumbler for 24 hours to assure contact of the organism with the test compound. After 24 hours, the vials are removed and examined for inhibition of […].

[14] = system: Monilinia fructicola; experiment: Spore germination inhibition; type: cell-based; conditions: for inhibition at 1 ppm / inhibition at 10 ppm: 24 hours; for inhibition at 100 ppm: 24 h, read-out: % Inhibition of Spore Germination
Source text: as §3

[15] = system: Stemphylium sarcinaeforme; experiment: Spore germination inhibition; type: cell-based; conditions: Stemphylium sarciniforme; for inhibition at 100 ppm: 24 h, read-out: % Inhibition of Spore Germination; for inhibition at 1 ppm / inhibition at 10 ppm: 24 hours
Source text: as §3

| SMILES | Agar Dilution Plate rating [1] | Agar Dilution Plate rating [2] | Agar Dilution Plate rating [3] | Agar Dilution Plate rating [4] | Agar Dilution Plate rating [5] | Agar Dilution Plate rating [6] | Agar Dilution Plate rating [7] | disease control index ([8]; 150 ppm) | disease control index ([8]; 300 ppm) | disease control index ([8]; 600 ppm) | disease control index ([9]; 150 ppm) | disease control index ([9]; 300 ppm) | disease control index ([9]; 600 ppm) | disease control index ([9]; 1200 ppm) | Agar Dilution Plate rating [10] | Agar Dilution Plate rating [11] | disease control index [12] | disease control index ([8]; at 75 ppm) | disease control index ([8]; at 500 ppm) | disease control index ([9]; at 500 ppm) | also measured |
| --- | --- | --- | --- | --- | --- | --- | --- | --- | --- | --- | --- | --- | --- | --- | --- | --- | --- | --- | --- | --- | --- |
| CCN(CC)C(=S)SCC(CSC(=S)N(CC)CC)[N+](=O)[O-] [Example 2, 2-Nitrotrimethylene Diethyldithiocarbamate] | 5 (100% effectiveness of the test compound against the specified organism) | 0 | 0 | 0 | 0 | 0 | 0 | 4 | 4 | 5 | 4 | 4 | 5 | 5 | 0 | 0 | 5 |  |  |  | disease control index ([8]; 1200 ppm): 5 |
| CN(C)CC1(CSC(=S)N(C)C)SC(=S)NC1=O (stereo not shown) [Example 12, Dimethyldithiocarbamic Acid S-Ester with 5-(Dimethylaminomethy)-5-(mercaptomethyl)rhodanine] |  |  |  |  |  |  |  |  | 5 |  | 5 | 5 |  |  |  |  | 5 |  |  |  |  |
| CCN(CC)C(=S)SC(C[N+](=O)[O-])c1ccccc1 (stereo not drawn) [Example 19, α-(Nitromethyl)benzyl Diethyldithiocarbamate] | 0 | 0 | 0 | 0 | 5 (100% effectiveness of the test compound against the specified organism) | 0 | 0 | 3 | 3 | 5 | 3 | 3 | 3 | 3 | 0 | 0 | 5 and 0 |  |  |  | disease control index ([8]; 1200 ppm): 5 |
| CN(C)C(=S)SC(C[N+](=O)[O-])c1ccc(C(C[N+](=O)[O-])SC(=S)N(C)C)cc1 (stereo not drawn) [Example 20, α,α'-Bis(nitromethyl)-p-phenylenedimethylene Dimethyldithiocarbamate] |  |  |  |  |  |  |  |  |  |  | 3 | 3 | 4 | 5 |  |  |  |  |  |  |  |
| COc1cccc(C(C[N+](=O)[O-])SC(=S)N(C)C)c1OC(C)=O (stereo not drawn) [Example 21, 2-Acetoxy-3-methoxy-α-(nitromethyl)benzyl Dimethyldithiocarbamate] |  |  |  |  |  |  |  |  |  |  |  |  |  |  |  |  | 4 | 3 | 4 | 5 |  |
| CN(C)C(=S)SC(C[N+](=O)[O-])c1cc([N+](=O)[O-])ccc1Cl (stereo not drawn) [Example 23, 2-Chloro-5-nitro-α-(nitromethyl)benzyl Dimethyldithiocarbamate] |  |  |  |  |  |  |  |  |  |  |  |  |  |  |  |  | 4 | 3 | 4 | 5 | disease control index ([9]; at 100 ppm): 5 |
| CC(=O)Oc1ccc(C(C[N+](=O)[O-])SC(=S)N(C)C)cc1 (stereo not drawn) [Example 24, 4-Acetoxy-α-(nitromethyl)benzyl Dimethyldithiocarbamate] | 5 (100% effectiveness of the test compound against the specified organism) | 0 | 0 | 0 | 5 (100% effectiveness of the test compound against the specified organism) | 0 | 5 (100% effectiveness of the test compound against the specified organism) |  |  |  |  |  |  |  | 5 (100% effectiveness of the test compound against the specified organism) | 0 | 5 | 3 | 4 | 5 | inhibition at 1 ppm [13]: 0%; inhibition at 10 ppm [13]: 100%; inhibition at 100 ppm [13]: 100%; inhibition at 1 ppm [14]: 0%; inhibition at 10 ppm [14]: 100%; inhibition at 100 ppm [14]: 100%; inhibition at 100 ppm [15]: 0%; disease control index ([9]; at 100 ppm): 3 |
| COc1ccc(C(C[N+](=O)[O-])SC(=S)N(C)C)cc1 (stereo not drawn) [Example 29, p-Methoxy-α-(nitromethyl)benzyl Dimethyldithiocarbamate] |  |  |  |  |  |  |  | 4 | 5 | 5 | 5 | 5 | 5 | 5 |  |  | 5 |  |  |  | disease control index ([8]; 1200 ppm): 5; inhibition at 1 ppm [13]: 0%; inhibition at 10 ppm [13]: 0%; inhibition at 100 ppm [13]: 100%; inhibition at 1 ppm [14]: 0%; inhibition at 10 ppm [14]: 100%; inhibition at 100 ppm [14]: 100%; inhibition at 100 ppm [15]: 100%; inhibition at 1 ppm [15]: 0%; inhibition at 10 ppm [15]: 100% |
| CN(C)C(=S)SC(C[N+](=O)[O-])c1cccc2ccccc12 (stereo not shown) [Example 31, 1-Naphthyl-2-nitroethyl Dimethyldithiocarbamate] | 5 (100% effectiveness of the test compound against the specified organism) | 5 (100% effectiveness of the test compound against the specified organism) | 0 | 5 (100% effectiveness of the test compound against the specified organism) | 5 (100% effectiveness of the test compound against the specified organism) | 0 | 5 (100% effectiveness of the test compound against the specified organism) |  |  |  |  |  |  |  | 5 (100% effectiveness of the test compound against the specified organism) | 0 | 4 | 4 | 5 | 5 | inhibition at 1 ppm [13]: 0%; inhibition at 10 ppm [13]: 0%; inhibition at 100 ppm [13]: 100%; inhibition at 1 ppm [14]: 0%; inhibition at 10 ppm [14]: 0%; inhibition at 100 ppm [14]: 100%; inhibition at 100 ppm [15]: 100%; inhibition at 1 ppm [15]: 0%; inhibition at 10 ppm [15]: 0%; disease control index ([9]; at 100 ppm): 5 |
| CN(C)C(=S)SC(C[N+](=O)[O-])c1ccco1 (stereo not drawn) [Example 32, α-(Nitromethyl)furfuryl Dimethyldithiocarbamate] |  |  |  |  |  |  |  | 0 | 0 | 5 | 4 | 4 | 5 | 5 |  |  | 5 and 0 |  |  |  | disease control index ([8]; 1200 ppm): 5 |
| CN(C)C(=S)SC(C[N+](=O)[O-])c1ccc(Cl)s1 (stereo not drawn) [Example 34, 5-Chloro-α-(nitromethyl)-2-thenyl Dimethyldithiocarbamate] | 5 (100% effectiveness of the test compound against the specified organism) | 0 | 0 | 5 (100% effectiveness of the test compound against the specified organism) | 0 | 0 | 0 |  |  |  |  |  |  |  | 0 | 0 |  | 1 | 3 | 3 | inhibition at 1 ppm [13]: 0%; inhibition at 10 ppm [13]: 100%; inhibition at 100 ppm [13]: 100%; inhibition at 1 ppm [14]: 0%; inhibition at 10 ppm [14]: 100%; inhibition at 100 ppm [14]: 100%; inhibition at 100 ppm [15]: 100%; inhibition at 1 ppm [15]: 0%; inhibition at 10 ppm [15]: 100% |
